As a reminder, the IC50 is the concentration needed to halve the response being measured.

The record followed here is patent US6231894A, “Treatments based on discovery that nitric oxide synthase is a paraquat diaphorase” (Duke University, priority 1999, dated 2001).

One series has as its system squamous cell carcinoma. Briefly: Working Example VI: mouth squamous cell carcinoma patient. Particulars: 5 cc swish and spit, 100 μM. The series is classed as in vivo, human. On the procedure: A mouth lesion is noted in a smoker during a routine dental visit. The lesion is found to be a squamous cell carcinoma. […] The patient is given a 5 cc solution of paraquat swish and spit (at a dose of 100 μM).

The test system of the next series is aconitase. The experiment in a line: Aconitase/fumarase activity ratio in macrophage lysates. The series is classed as cell-based. The settings on record: 24 hours, FIG. 5. On the procedure: Aconitase activity (a sensitive marker of O2^- and peroxynitrite formation) and fumarase activity were measured as described in Patel, M., et al., Nuron 16, 345-355 (1996). Specifically aconitase activity was determined spectrophotometrically by monitoring the formation of cis-aconitate from isocitrate at 240 nm. Fumarase activity was measured by monitoring the increased absorbence at 240 mn following the formation of fumarate from L-malate. Aconitase activity was expressed as a ratio of aconitase activity to flimarase activity in order to correct for differences in cell numbers.
Aconitase activity was measured in cell lysates 24 hours after cytomix, DETA nonoate and paraquat treatments. Macrophages were grown in 24-well plates and treated with cytomix or 250 μM DETA NONOate. Control, activated (cytomix) and DETA NONOate groups were treated with paraquat (0.1 mM) or not treated with paraquat. The results are shown in FIG. 5 where an asterisk indicates a significant difference from control group, p<0.05.

The subject of another series is solid tumor. Briefly: Working Example VII: solid tumor patient. The series is classed as in vivo, human. The settings on record: IV infusion 4 milligram per kilogram, seven cycles, after 5,6 MEXAA; two weeks. On the procedure:
A person is given the anti-tumor agent 5,6 dimethylxanthemone-4-acetic acid (5,6 MEXAA) to treat a solid tumor identified by biopsy on the left lower extremity, and lung. […] At this time, the patient is treated with intravenous infusion of paraquat (4 milligram per kilogram) for seven cycles.

For series [1], the system named is CPA-47 endothelial cell line. Briefly: LDH release from endothelial cells (cytotoxicity). The series is classed as cell-based. The settings on record: 2 mM paraquat, 24 hours; FIG. 2(b). On the procedure: To test whether the above effect was present in intact cells, endothelial cell cultures, constitutively expressing NOS3 protein as determined by western blot analysis, were treated with 2 mM paraquat in the presence of increasing concentrations of either L-NAME or L-NMMA.
The endothelial cells were obtained as follows: CPA-47 endothelial cell line (CRL-1733) was purchased from American Type Culture Collection (Manassas, Va.). Endothelial cells were grown in T-75 flasks containing Ham's F-12 K medium supplemented by 1 mM […] and 10% equine serum (Gibco-BRL, Grand Island, N.Y.). Endothelial cells were plated at 3.5×10^4 cells/well in 24-well plates and experiments were performed 48 hours later when cells were near confluence. Medium was changed to minimal essential medium without serum supplement. Endothelial cells were from passages 30-36.
Cytotoxicity was measured as the percent release of LDH and compared to vehicl-treated cells (basal). The percent release of cytosolic lactate dehydrogenase (LDH) into the culture medium was used to assess the integrity of the cell membrane. LDH activity was measured by following the loss of NADH at 340 nm as described in Day, B. J., et al., J. Pharmacol. Exp. Ther. 275, 1227-1232 (1995). The percent release of LDH into the culture medium 24 hours after the paraquat treatment was used to assess cell injury.
A general note: Release of lactate dehydrogenase indicates damage to the cell membrane.

Series [2] addresses T1, Recombinant rat neuronal nitric oxide synthase (NOS1) (Rattus norvegicus, UniProt P29476).
T1 construct: purchased Oxis, Portland, Oreg
Briefly: NO formation by NOS1, total nitrite and nitrate (colorimetric). The series is classed as biochemical. On the procedure: Recombinant rat neuronal nitric oxide synthase (NOS1, Oxis, Portland, Oreg.), a constitutive enzyme, was used to assay NADPH oxidation in the presence of increasing concentrations of paraquat. Reactions (0.2 ml) were performed in bis-tris propane buffer (40 mM) containing L-arginine (1 mM), CaCl2 (1.2 mM), EDTA (0.9 mM), NADPH (0.35 mM), dithiothreitol (3 mM), tetrahydrobiopterin (4 μM), catalase (1 μg/ml) and calmodulin (200 U/ml) at pH 7.4. Reactions were initiated by the addition of 1.5 U of NOS1, and the oxidation of NADPH was continuously monitored at 340 nm for 1 minute at 37° C. in a plate reader. The rate of NOS-mediated NADPH oxidation was determined using an extinction coefficient of 6.22 mM^-1 cm^-1 after subtracting the baseline of NADPH oxidation.
The same microtiter plates used above were left at room temperature for 5 hours and then an aliquot was assayed for total nitrite and nitrate. Nitrite and nitrate were assayed using a non-enzymatic colorimetric kit (NB-88, Oxford Biomedical Research, Oxford, Mich.). NADPH oxidation was stopped after 5 hours by addition of 25 μl of zinc sulfate (30% w/v) to precipitate the NOS protein. Nitrate was non-enzymatically converted to nitrite by overnight incubation of 150 μl of reaction mixture from the NADPH oxidation assay with cadmium beads. Nitrite concentration was determined from a standard curve using 100 μl sample or standard. As shown FIG. 1(b), the formation of NO was inhibited by paraquat.

The subject of the next series is Rabbit aortic rings. The experiment in a line: Exogenous NO-induced relaxation of aortic rings. The settings on record: 2 mM paraquat, phenylephrine 1 μM; FIG. 3(b). On the procedure: New Zealand white male rabbits weighting 3-4 kg were anaesthetized with phenobarbital (30 mg/kg/iv). The descending thoracic aorta was isolated and placed in Krebs-Henseleit buffer (pH 7.4) and stored at 4° C. until used. The vessels were cut into 5 mm rings and submerged in 25 ml double jacketed tissue baths containing Krebs-Henseleit buffer bubbled with 95% oxygen and 5% carbon dioxide at 37° C. Rings were hung on stainless steel stirrups connected to calibrated force transducers. Rings were equilibrated with 2 g resting tension for 1 hour before use and contracted with phenylephrine (1 μM). Rings were incubated with paraquat for 15 minutes before acetylcholine-induced or exogenous relaxations were performed.
In another case, rabbit aortic rings were constricted with 1 μM phenylephrine (initial contraction) and relaxed with increasing concentration of NO in the presence or absence of 2 mM paraquat. The results are shown in FIG. 3(b) where relaxations are expressed as a percent of the initial phenylephrine-induced contraction.

T1 sequence (P29476 whole entry): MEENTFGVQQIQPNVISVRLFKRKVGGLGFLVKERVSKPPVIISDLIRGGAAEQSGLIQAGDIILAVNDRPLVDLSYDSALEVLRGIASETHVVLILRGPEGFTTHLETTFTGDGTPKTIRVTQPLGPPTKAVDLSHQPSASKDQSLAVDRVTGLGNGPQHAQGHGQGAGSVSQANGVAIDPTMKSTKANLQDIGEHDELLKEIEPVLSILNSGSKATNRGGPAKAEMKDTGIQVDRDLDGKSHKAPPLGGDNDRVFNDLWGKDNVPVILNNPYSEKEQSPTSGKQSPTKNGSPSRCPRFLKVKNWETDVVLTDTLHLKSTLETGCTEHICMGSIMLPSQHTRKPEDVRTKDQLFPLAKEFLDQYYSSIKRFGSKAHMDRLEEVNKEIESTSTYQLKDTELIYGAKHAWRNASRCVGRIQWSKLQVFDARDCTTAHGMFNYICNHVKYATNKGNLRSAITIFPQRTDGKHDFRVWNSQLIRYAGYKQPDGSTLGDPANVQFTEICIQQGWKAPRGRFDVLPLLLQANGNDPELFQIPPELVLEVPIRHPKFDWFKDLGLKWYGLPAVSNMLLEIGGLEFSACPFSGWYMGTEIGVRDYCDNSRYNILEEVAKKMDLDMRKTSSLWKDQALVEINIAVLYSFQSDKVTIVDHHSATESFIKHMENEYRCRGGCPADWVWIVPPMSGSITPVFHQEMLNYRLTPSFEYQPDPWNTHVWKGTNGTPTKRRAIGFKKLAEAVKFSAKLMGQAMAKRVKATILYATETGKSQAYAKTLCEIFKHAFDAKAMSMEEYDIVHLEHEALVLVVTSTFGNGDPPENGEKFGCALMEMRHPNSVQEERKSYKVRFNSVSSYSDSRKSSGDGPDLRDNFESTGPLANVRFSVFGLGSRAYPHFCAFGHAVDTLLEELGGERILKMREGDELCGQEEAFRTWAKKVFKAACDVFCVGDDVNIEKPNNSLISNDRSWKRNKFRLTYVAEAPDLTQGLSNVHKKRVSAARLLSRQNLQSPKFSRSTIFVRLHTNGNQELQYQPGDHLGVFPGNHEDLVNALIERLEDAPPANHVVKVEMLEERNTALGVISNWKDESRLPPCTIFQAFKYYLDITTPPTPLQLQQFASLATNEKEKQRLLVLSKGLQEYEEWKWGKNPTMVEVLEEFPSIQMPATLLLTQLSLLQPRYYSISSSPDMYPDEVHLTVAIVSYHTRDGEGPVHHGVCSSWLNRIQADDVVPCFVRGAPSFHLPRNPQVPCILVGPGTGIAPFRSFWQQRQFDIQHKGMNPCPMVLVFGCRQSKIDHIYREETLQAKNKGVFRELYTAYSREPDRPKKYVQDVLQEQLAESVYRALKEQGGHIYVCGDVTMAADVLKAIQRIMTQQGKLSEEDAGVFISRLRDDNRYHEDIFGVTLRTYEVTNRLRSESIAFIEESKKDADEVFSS

In the case of `C[n+]1ccc(-c2cc[n+](C)cc2)cc1` [paraquat], the adverse effect result in the series with squamous cell carcinoma is given as “complicating oral ulcerations”. Besides, the tumor regression result with squamous cell carcinoma (seven days) is “tumor is found to have regressed”; in the series with solid tumor it was “tumor regresses and is not longer detectable”. Further, the aconitase activity entry is given as “not seen in the paraquat/DETA NONOate group” in the series with aconitase (paraquat 0.1 mM plus 250 μM DETA NONOate) and “a decrease in aconitase activity is seen” in the series with aconitase (paraquat 0.1 mM plus cytomix). For the same compound, the “increase in LDH release” value in series [1] was “three-fold”. In series [2] (FIG. 1(b), 5 hours at room temperature), the “NO formation (accumulation of nitrite and nitrate)” value was “concentration dependent decrease in NO formation”. In addition, the half-inhibitory concentration (IC50) in series [2] (concentration that inhibited NO formation by 50%, 95% confidence level 47-82 μM, 5 hours, read-out: IC50, inhibition of NO formation) was 62 µM. For the same compound, the NOS activity result in series [2] (conclusion of Background Example 1) is on record as “inhibits NOS activity”. In addition, in the series with Rabbit aortic rings, the “effect on exogenously added NO-induced relaxation” value is “did not inhibit exogenously added NO-induced relaxation”.
